Results: patent publication US9409857B2 (SHANGHAI RIGHTHAND PHARMTECH. CO., LTD., priority 2012, dated 2016)
In brackets after ≈: the same amount, converted by molar mass. Several values for one entry are separate records, joined by “and”; a condition that tells them apart may be missing. Equal values may be shown once. Read-outs that look alike come from different tables or passages of the source.

Legend:
physchem = conditions: thermodynamic from solid
[1] = Determination of stability under accelerated testing condition (HPLC total impurities); type: physicochemical; conditions: (40±2)°C, relative humidity (75±5)%, Batch 1-3 on separate table lines
Protocol: Conditions for chromatogram: octadecyl silane chemically bonded silica was used as a filler; a mixed solution wherein methanol-acetonitrile-phosphate buffer (10 mM/L, pH adjusted to 2.7 with phosphoric acid)=40:20:40 was used as mobile phase; column temperature was 40° C.; detecting wavelength was 220 nm. The purity of each of the products in the above described Example was determined using internal standard method. […] The stability of each of the batches was studied via High Performance Liquid Chromatography (HPLC) and the content percentage of the total related substances (total impurities) was determined in addition to the peaks of Agomelatine and acid radicals.

[2] = pH 7
[3] = Determination of water solubility by external standard method

Compound	solubility (physchem; pH 7, aqueous buffer)	solubility (physchem; simulated gastric fluid)	solubility (physchem; water)	total impurities % (total related substances) ([1]; time 0 month)	total impurities % (total related substances) ([1]; time 1 month)	total impurities % (total related substances) ([1]; time 2 months)	total impurities % (total related substances) ([1]; time 3 months)	total impurities % (total related substances) ([1]; time 6 months)	Agomelatine content (solubility) [2]	Agomelatine content (solubility) ([3]; pH = 7.0 buffer solution)	Agomelatine content (solubility) ([3]; pury water)
COc1ccc2cccc(CCNC(C)=O)c2c1 [Agomelatine crystallographic form II, N-[2-(7-methoxyl-1-naphthyl)ethyl]acetamide]	260 µg/mL (≈ 1070 µM)	290 µg/mL (≈ 1190 µM)	270 µg/mL (≈ 1110 µM)	–	–	–	–	–	–	–	–
COc1ccc2cccc(CCNC(C)=O)c2c1.CS(=O)(=O)O [Agomelatine methanesulfonic acid complex]	–	–	–	0.21% and 0.22% and 0.24%	0.22% and 0.24%	0.22% and 0.23% and 0.25%	0.23% and 0.25%	0.23% and 0.24% and 0.26%	320 µg/mL	–	–
Agomelatine benzenesulfonic acid complex	–	–	–	0.11% and 0.12% and 0.14%	0.12% and 0.14%	0.12% and 0.14% and 0.16%	0.14% and 0.16%	0.14% and 0.15% and 0.17%	–	–	–
Agomelatine sulfuric acid complex	–	–	–	0.11% and 0.12% and 0.14%	0.12% and 0.14%	0.12% and 0.13% and 0.15%	0.13% and 0.15%	0.13% and 0.14% and 0.16%	–	330 µg/mL	340 µg/mL
